Source: ChEMBL document CHEMBL6134851, “Comparative Study on Covalent and Noncovalent Endogenous Albumin-Binding β-Glucuronidase-Activated SN38 Prodrugs for Antitumor Efficacy” (J Med Chem, 2025)
Calls of active or inactive are those of the source. No cut-off for these calls is given here.

Tests used:
[1] = Prodrug release in human plasma assessed as (S)-4,11-diethyl-4,9-dihydroxy-1,12-dihydro-14H-pyrano[3',4':6,7]indolizino[1,2-b]quinoline-3,14(4H)-dione release measured after 7 days relative to control; type: ADME, cell-free; conditions: 168 h, time 7 day
HCT-116 [2] = test: Antitumor activity against human HCT-116 cells xenografted in female BALB/cA nude mouse model assessed as relative tumor proliferation rate at 38 mg/kg, iv administered twice per week measured after 107 days; type: functional, organism-based; conditions: time 107.0 day
4T1 [3] = test: Antiproliferative activity against mouse 4T1 cells assessed as reduction in cell viability measured after 72 hrs by MTT assay; type: functional, cell-based
Albumin [4] = target: T1, Albumin (Homo sapiens, UniProt P02768); test: Binding affinity to human serum albumin assessed as binding rate measured within 4 mins by HPLC analysis relative to control; type: ADME; conditions: isolated protein
T1 sequence (P02768 whole entry): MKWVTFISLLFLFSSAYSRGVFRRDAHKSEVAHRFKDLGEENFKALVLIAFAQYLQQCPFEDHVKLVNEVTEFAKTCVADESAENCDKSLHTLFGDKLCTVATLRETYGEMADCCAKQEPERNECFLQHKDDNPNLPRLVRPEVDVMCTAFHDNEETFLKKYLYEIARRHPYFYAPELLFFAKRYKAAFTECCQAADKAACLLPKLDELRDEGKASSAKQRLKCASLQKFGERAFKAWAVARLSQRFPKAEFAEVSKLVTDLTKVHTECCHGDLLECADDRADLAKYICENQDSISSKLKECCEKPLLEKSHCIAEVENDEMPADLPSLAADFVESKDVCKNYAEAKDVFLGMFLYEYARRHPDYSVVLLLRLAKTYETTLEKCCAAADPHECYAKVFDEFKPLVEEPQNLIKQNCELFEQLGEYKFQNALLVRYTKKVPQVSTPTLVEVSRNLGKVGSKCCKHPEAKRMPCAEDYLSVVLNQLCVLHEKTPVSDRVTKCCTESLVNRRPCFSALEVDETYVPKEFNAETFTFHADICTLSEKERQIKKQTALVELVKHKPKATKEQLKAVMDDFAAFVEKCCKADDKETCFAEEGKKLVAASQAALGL

[5] = Toxicity in female BALB/cA nude mouse assessed as fibrotic changes in kidney at 38 mg/kg, iv administered once a week for 35 days by H and E staining based analysis; type: organism-based; conditions: in vivo, 840 h, time 35 day
A549 [6] = test: Antiproliferative activity against human A549 cells assessed as reduction in cell viability measured after 72 hrs in presence of beta-glucuronidase by MTT assay; type: functional, cell-based
HCT-116 [7] = test: Antiproliferative activity against human HCT-116 cells assessed as reduction in cell viability measured after 72 hrs in presence of beta-glucuronidase by MTT assay; type: functional, cell-based
[8] = AUC (0 to t) in female BALB/c mouse at 38 mg/kg measured up to 168 hrs by HPLC analysis; type: ADME, organism-based; conditions: in vivo
BXPC-3 [9] = test: Antitumor activity against human BXPC-3 cells xenografted in female BALB/cA nude mouse model assessed as suppression of tumor growth by measuring relative tumor proliferation rate at 38 mg/kg, iv measured after 17 days relative to control; type: functional; conditions: time 17 day
[10] = Toxicity in female BALB/cA nude mouse assessed as damage in heart at 38 mg/kg, iv measured after 24 hrs by H and E staining based analysis; type: organism-based; conditions: in vivo
HepG2 [11] = test: Antiproliferative activity against human HepG2 cells assessed as reduction in cell viability measured after 72 hrs by MTT assay; type: functional, cell-based
BXPC-3 [12] = test: Antiproliferative activity against human BXPC-3 cells assessed as reduction in cell viability treated with HSA bound prodrug measured after 72 hrs by MTT assay; type: functional, cell-based
HCT-116 [13] = test: Antitumor activity against human HCT-116 cells xenografted in female BALB/cA nude mouse model assessed as increase in tumor cell apoptosis by measuring increase in red fluorescence at 38 mg/kg, iv by TUNEL analysis; type: functional, organism-based
HepG2 [14] = test: Antiproliferative activity against human HepG2 cells assessed as reduction in cell viability treated with HSA bound prodrug measured after 72 hrs by MTT assay; type: functional, cell-based
A549 [15] = test: Antiproliferative activity against human A549 cells assessed as reduction in cell viability treated with HSA bound prodrug measured after 72 hrs in presence of beta-glucuronidase by MTT assay; type: functional, cell-based
BXPC-3 [16] = test: Antiproliferative activity against human BXPC-3 cells assessed as reduction in cell viability treated with HSA bound prodrug measured after 72 hrs in presence of beta-glucuronidase by MTT assay; type: functional, cell-based
HepG2 [17] = test: Antiproliferative activity against human HepG2 cells assessed as reduction in cell viability measured after 72 hrs in presence of beta-glucuronidase by MTT assay; type: functional, cell-based
BXPC-3 [18] = test: Antitumor activity against human BXPC-3 cells xenografted in female BALB/cA nude mouse model assessed as suppression of tumor growth by measuring relative tumor proliferation rate at 38 mg/kg, iv measured after 18 days; type: functional, organism-based; conditions: time 18.0 day
[19] = Toxicity in female BALB/cA nude mouse assessed as fibrotic changes in liver at 38 mg/kg, iv administered once a week for 35 days by H and E staining based analysis; type: organism-based; conditions: in vivo, 840 h, time 35 day
HCT-116 [20] = test: Antiproliferative activity against human HCT-116 cells assessed as reduction in cell viability treated with HSA bound prodrug measured after 72 hrs in presence of beta-glucuronidase by MTT assay; type: functional, cell-based
HCT-116 [21] = test: Antiproliferative activity against human HCT-116 cells assessed as reduction in cell viability measured after 72 hrs by MTT assay; type: functional, cell-based
HepG2 [22] = test: Antiproliferative activity against human HepG2 cells assessed as reduction in cell viability treated with HSA bound prodrug measured after 72 hrs in presence of beta-glucuronidase by MTT assay; type: functional, cell-based
A549 [23] = test: Antiproliferative activity against human A549 cells assessed as reduction in cell viability treated with HSA bound prodrug measured after 72 hrs by MTT assay; type: functional, cell-based
Albumin [24] = target: T1, Albumin; test: Binding affinity to human serum albumin assessed as binding rate measured after 24 mins by HPLC analysis relative to control; type: ADME; conditions: isolated protein, 0.4 h
4T1 [25] = test: Antiproliferative activity against mouse 4T1 cells assessed as reduction in cell viability measured after 72 hrs in presence of beta-glucuronidase by MTT assay; type: functional, cell-based
4T1 [26] = test: Antiproliferative activity against mouse 4T1 cells assessed as reduction in cell viability treated with HSA bound prodrug measured after 72 hrs in presence of beta-glucuronidase by MTT assay; type: functional, cell-based
[27] = Drug uptake in human HCT-116 cells assessed as increase in fluorescence intensity measured after 1 to 6 hrs by confocal microscopy analysis; type: ADME, cell-based; conditions: time 1-6 hrs
[28] = Prodrug release in female BALB/c nude mouse tumor assessed as (S)-4,11-diethyl-4,9-dihydroxy-1,12-dihydro-14H-pyrano[3',4':6,7]indolizino[1,2-b]quinoline-3,14(4H)-dione accumulation at 38 mg/kg measured after 6 hrs by HPLC analysis; type: ADME, organism-based, Neoplasm; conditions: in vivo
HCT-116 [29] = test: Antiproliferative activity against human HCT-116 cells assessed as reduction in cell viability treated with HSA bound prodrug measured after 72 hrs by MTT assay; type: functional, cell-based
A549 [30] = test: Antiproliferative activity against human A549 cells assessed as reduction in cell viability measured after 72 hrs by MTT assay; type: functional, cell-based
4T1 [31] = test: Antiproliferative activity against mouse 4T1 cells assessed as reduction in cell viability treated with HSA bound prodrug measured after 72 hrs by MTT assay; type: functional, cell-based
[32] = Toxicity in female BALB/cA nude mouse assessed as appearance of inflammatory lesions in kidney at 25 mg/kg, iv administered once a week for 35 days by H and E staining based analysis; type: organism-based; conditions: in vivo, 840 h, time 35 day
[33] = Toxicity in female BALB/cA nude mouse assessed as inflammatory response in liver at 25 mg/kg, iv measured after 24 hrs by H and E staining based analysis; type: organism-based; conditions: in vivo
[34] = Toxicity in female BALB/cA nude mouse assessed as appearance of inflammatory lesions in spleen at 25 mg/kg, iv administered once a week for 35 days by H and E staining based analysis; type: organism-based; conditions: in vivo, 840 h, time 35 day
[35] = Toxicity in female BALB/cA nude mouse assessed as appearance of inflammatory lesions in tumor at 25 mg/kg, iv administered once a week for 35 days by H and E staining based analysis; type: organism-based; conditions: in vivo, 840 h, time 35 day
HCT-116 [36] = test: Antitumor activity against human HCT-116 cells xenografted in female BALB/cA nude mouse model assessed as tumor shrinkage at 25 mg/kg, iv administered twice per week measured after 65 days relative to control; type: functional; conditions: time 65 day
[37] = Cmax in female BALB/c mouse at 25 mg/kg measured up to 120 hrs by HPLC analysis; type: ADME, organism-based; conditions: in vivo

Row | Structure (SMILES) | Drug metabolism [1] | Activity (4T1 [3]) | Activity (Albumin [4]) | Activity (A549 [6]) | Activity (HCT-116 [7]) | Activity (HepG2 [11]) | Activity (BXPC-3 [12]) | Activity (HepG2 [14]) | Activity (A549 [15]) | Activity (BXPC-3 [16]) | Activity (HepG2 [17]) | Activity (HCT-116 [20]) | Activity (HCT-116 [21]) | Activity (HepG2 [22]) | Activity (A549 [23]) | Activity (4T1 [25]) | Activity (4T1 [26]) | Drug uptake [27] | Activity (HCT-116 [29]) | Activity (A549 [30]) | further results
1 | CCc1c2c(nc3ccc(OCc4ccc(O[C@@H]5O[C@H](C(=O)O)[C@@H](O)[C@H](O)[C@H]5O)c(NC(=O)CCNC(=O)COCCOCCNC(=O)COCCOCCNC(=O)CC[C@H](NC(=O)CCCCCCCCCCCCCCCCC(=O)O)C(=O)O)c4)cc13)-c1cc3c(c(=O)n1C2)COC(=O)[C@]3(O)CC | metabolite_notdetected | Not active; Compound Showed Lower Cytotoxicity Compared To Sn38 | 95% | Active | Active | Not active; Compound Showed Lower Cytotoxicity Compared To Sn38 | inactive | inactive | Active | Active | Active | Active | Not active; Compound Showed Lower Cytotoxicity Compared To Sn38 | Active | inactive | Active | Active | Active | inactive | Not active; Compound Showed Lower Cytotoxicity Compared To Sn38 | Activity (HCT-116 [2]): inactive; Activity [5]: Non-toxic; AUC(0-t) at 168 h [8]: 837 µg·h/mL; Activity (BXPC-3 [9]): 34.39%; Activity [10]: Toxic; Activity (HCT-116 [13]): Active; Activity (BXPC-3 [18]): inactive; Activity [19]: Non-toxic; Activity (Albumin [24]): 94%; Drug metabolism [28]: 0.376 % ID/g; Activity (4T1 [31]): inactive
2 | CCc1c2c(nc3ccc(OCc4ccc(O[C@@H]5O[C@H](C(=O)O)[C@@H](O)[C@H](O)[C@H]5O)c(NC(=O)CCNC(=O)CCCCCN5C(=O)C=CC5=O)c4)cc13)-c1cc3c(c(=O)n1C2)COC(=O)[C@]3(O)CC | metabolite_notdetected | Not active; Compound Showed Lower Cytotoxicity Compared To Sn38 | 99% | Active | Active | Not active; Compound Showed Lower Cytotoxicity Compared To Sn38 | inactive | inactive | Active | Active | Active | Active | Not active; Compound Showed Lower Cytotoxicity Compared To Sn38 | Active | inactive | Active | Active | Active | inactive | Not active; Compound Showed Lower Cytotoxicity Compared To Sn38 | Activity [32]: Non-toxic; Activity [33]: Toxic; Activity [34]: Non-toxic; Activity [35]: Non-toxic; Activity (HCT-116 [36]): 100%; Cmax [37]: 50.7 µg/mL; Activity (4T1 [31]): inactive
